How the values were obtained:
Assay type in all cases: biochemical
Itk = biological target: T1, Itk (Homo sapiens, UniProt Q08881); assay: Kinase inhibition assay (33P transfer), Itk; settings: Table 3, class symbols; read-out: Itk-1
T1 construct: Kinases are expressed as either kinase domains or full length constructs; made in house
T1 sequence (Q08881 1-620): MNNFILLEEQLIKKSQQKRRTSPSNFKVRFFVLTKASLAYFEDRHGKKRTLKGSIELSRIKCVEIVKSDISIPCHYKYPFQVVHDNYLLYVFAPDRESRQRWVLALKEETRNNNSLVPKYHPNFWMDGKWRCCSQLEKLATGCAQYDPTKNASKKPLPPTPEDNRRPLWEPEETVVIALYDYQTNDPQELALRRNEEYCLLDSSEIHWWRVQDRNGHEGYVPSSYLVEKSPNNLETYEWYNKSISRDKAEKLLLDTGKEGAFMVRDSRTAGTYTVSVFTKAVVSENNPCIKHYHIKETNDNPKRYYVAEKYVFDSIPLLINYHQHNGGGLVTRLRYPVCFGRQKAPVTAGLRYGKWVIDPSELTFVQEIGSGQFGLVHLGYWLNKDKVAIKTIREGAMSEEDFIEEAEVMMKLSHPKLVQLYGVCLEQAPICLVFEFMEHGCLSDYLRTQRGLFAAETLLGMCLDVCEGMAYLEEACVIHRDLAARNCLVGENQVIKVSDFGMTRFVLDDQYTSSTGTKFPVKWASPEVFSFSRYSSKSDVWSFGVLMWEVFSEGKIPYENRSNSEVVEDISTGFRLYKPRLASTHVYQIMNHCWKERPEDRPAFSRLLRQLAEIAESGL
Summary of the method: (§1)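 Recombinant kinase domains or full-length GST- or His-tagged constructs, from E. coli or baculovirus/High Five cells, sometimes with regulatory polypeptides. Transfer of 33P from ATP to plate-bound poly(Glu,Tyr) 4:1 or poly(Arg,Ser) 3:1 counted by liquid scintillation after phosphoric acid wash; IC50 is the concentration halving incorporation.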

Zap-70 = biological target: T2, Zap-70 (Homo sapiens, UniProt P43403); assay: Kinase inhibition assay (33P transfer), Zap-70; settings: Table 3, class symbols; read-out: Zap-1
T2 construct: Kinases are expressed as either kinase domains or full length constructs; made in house
T2 sequence (P43403 1-619): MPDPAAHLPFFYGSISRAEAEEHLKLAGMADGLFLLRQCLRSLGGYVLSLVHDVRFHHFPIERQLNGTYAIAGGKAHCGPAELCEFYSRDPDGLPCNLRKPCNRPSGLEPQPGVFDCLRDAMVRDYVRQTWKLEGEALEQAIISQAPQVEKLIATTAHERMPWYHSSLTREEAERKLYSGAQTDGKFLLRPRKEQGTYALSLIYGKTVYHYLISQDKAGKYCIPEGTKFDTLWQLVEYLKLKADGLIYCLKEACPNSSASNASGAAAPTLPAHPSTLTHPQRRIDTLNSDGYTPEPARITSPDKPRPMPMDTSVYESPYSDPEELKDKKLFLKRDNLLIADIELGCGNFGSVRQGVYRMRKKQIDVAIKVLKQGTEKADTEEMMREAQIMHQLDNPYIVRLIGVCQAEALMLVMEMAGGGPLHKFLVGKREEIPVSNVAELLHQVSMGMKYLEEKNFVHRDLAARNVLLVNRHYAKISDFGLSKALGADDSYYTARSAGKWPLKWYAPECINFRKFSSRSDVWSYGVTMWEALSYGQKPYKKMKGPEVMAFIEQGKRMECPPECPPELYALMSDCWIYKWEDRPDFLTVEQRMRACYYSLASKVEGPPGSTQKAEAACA
Summary of the method: (§2)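 Each kinase, expressed as a GST- or polyHis-tagged domain or full-length protein, phosphorylated plate-attached poly(Glu,Tyr) 4:1 or poly(Arg,Ser) 3:1 using 33P-ATP. Bound radioactivity was measured by scintillation after a 0.5% phosphoric acid wash.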

Lck = biological target: T3, Lck (Homo sapiens, UniProt P06239); assay: Kinase inhibition assay (33P transfer), Lck; settings: Table 3, class symbols; read-out: Lck-1
T3 construct: Kinases are expressed as either kinase domains or full length constructs; made in house
T3 sequence (P06239 whole entry, species assumed, the tested form may be a part): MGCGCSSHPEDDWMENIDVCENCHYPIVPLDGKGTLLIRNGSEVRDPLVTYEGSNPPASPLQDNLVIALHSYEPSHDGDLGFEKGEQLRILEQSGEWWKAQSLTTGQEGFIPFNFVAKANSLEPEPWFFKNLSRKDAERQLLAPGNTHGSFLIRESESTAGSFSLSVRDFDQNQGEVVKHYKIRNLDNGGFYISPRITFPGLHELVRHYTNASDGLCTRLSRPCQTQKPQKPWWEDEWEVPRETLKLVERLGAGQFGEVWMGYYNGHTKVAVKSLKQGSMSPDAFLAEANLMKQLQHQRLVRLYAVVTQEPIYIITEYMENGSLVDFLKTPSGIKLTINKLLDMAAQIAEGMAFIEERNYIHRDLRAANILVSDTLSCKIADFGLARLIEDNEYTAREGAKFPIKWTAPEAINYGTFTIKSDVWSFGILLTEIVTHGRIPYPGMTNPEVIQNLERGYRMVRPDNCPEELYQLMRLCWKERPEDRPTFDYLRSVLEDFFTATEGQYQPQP
Summary of the method: as §2

ErbB2 = biological target: T4, ErbB2 (Homo sapiens, UniProt P04626); assay: Kinase inhibition assay (33P transfer), ErbB2; settings: read-out: ErbB2-2
T4 construct: Kinases are expressed as either kinase domains or full length constructs; made in house
T4 sequence (P04626 23-1255, species assumed): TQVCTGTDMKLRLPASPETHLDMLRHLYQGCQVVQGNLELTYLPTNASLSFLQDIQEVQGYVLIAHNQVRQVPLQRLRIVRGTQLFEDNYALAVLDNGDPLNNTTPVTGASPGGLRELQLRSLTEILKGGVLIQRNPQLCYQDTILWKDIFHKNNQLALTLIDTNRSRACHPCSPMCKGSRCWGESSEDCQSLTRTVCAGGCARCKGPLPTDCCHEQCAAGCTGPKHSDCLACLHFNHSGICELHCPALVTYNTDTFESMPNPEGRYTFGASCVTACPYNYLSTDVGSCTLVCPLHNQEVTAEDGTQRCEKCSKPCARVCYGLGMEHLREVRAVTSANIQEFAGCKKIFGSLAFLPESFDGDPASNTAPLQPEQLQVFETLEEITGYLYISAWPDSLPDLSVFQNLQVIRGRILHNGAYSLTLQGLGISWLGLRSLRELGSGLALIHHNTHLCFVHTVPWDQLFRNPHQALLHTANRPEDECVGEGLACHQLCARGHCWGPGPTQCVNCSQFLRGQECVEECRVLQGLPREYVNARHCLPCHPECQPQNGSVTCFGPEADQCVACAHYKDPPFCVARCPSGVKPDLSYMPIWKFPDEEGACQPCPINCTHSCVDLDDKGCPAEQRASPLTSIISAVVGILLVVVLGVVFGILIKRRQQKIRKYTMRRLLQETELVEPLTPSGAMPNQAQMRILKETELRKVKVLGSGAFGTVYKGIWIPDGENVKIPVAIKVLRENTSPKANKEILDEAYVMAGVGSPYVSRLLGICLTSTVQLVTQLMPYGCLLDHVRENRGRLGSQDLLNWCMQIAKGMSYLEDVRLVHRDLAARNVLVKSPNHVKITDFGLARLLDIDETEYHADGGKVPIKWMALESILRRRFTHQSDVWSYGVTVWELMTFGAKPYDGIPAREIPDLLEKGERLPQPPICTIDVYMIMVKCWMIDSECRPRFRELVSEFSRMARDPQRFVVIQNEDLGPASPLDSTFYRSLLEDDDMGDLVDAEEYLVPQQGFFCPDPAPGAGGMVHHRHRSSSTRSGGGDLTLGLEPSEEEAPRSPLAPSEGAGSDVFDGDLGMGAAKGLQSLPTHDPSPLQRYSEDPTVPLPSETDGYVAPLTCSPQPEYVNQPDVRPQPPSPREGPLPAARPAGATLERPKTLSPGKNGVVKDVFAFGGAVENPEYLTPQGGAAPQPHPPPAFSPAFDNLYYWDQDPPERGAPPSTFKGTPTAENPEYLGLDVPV
Summary of the method: as §1

AKT = biological target: T5, AKT (Homo sapiens, UniProt Q9Y243); assay: Kinase inhibition assay (33P transfer), AKT; settings: Table 2, class symbols A-E; read-out: AKT3-1
T5 construct: Kinases are expressed as either kinase domains or full length constructs; made in house
T5 sequence (Q9Y243 whole entry, the tested form may be a part): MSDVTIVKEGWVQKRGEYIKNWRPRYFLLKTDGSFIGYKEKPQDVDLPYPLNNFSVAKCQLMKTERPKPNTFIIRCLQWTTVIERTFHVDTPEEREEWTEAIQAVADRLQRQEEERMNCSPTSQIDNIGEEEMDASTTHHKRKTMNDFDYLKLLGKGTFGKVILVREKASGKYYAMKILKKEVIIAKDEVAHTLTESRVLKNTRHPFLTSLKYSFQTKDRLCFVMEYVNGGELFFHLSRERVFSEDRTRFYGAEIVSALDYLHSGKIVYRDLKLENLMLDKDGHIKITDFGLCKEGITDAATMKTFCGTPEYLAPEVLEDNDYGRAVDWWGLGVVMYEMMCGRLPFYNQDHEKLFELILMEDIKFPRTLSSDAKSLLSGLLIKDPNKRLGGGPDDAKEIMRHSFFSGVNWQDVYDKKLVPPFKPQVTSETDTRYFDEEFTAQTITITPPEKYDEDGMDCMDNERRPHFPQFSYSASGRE
Summary of the method: as §2

EGFR = biological target: T6, EGFR (Homo sapiens, UniProt P00533); assay: Kinase inhibition assay (33P transfer), EGFR; settings: Table 2, class symbols A-E; read-out: EGFR-1
T6 construct: Kinases are expressed as either kinase domains or full length constructs; made in house
Summary of the method: as §1

Kdr = biological target: T7, Kdr (Homo sapiens, UniProt P35968); assay: Kinase inhibition assay (33P transfer), Kdr; settings: Table 3, class symbols; read-out: KDR-1
T7 construct: Kinases are expressed as either kinase domains or full length constructs; made in house
Summary of the method: as §2

PDGFRB = biological target: T8, PDGFRB (Homo sapiens, UniProt P09619); assay: Kinase inhibition assay (33P transfer), PDGFRB; settings: read-out: PDGFRB-1
T8 construct: Kinases are expressed as either kinase domains or full length constructs; made in house

IGFR-1 = biological target: T9, IGFR-1 (Homo sapiens, UniProt P08069); assay: Kinase inhibition assay (33P transfer), IGFR-1; settings: Table 2, class symbols A-E
T9 construct: Kinases are expressed as either kinase domains or full length constructs; made in house
T9 sequence (P08069 31-1367): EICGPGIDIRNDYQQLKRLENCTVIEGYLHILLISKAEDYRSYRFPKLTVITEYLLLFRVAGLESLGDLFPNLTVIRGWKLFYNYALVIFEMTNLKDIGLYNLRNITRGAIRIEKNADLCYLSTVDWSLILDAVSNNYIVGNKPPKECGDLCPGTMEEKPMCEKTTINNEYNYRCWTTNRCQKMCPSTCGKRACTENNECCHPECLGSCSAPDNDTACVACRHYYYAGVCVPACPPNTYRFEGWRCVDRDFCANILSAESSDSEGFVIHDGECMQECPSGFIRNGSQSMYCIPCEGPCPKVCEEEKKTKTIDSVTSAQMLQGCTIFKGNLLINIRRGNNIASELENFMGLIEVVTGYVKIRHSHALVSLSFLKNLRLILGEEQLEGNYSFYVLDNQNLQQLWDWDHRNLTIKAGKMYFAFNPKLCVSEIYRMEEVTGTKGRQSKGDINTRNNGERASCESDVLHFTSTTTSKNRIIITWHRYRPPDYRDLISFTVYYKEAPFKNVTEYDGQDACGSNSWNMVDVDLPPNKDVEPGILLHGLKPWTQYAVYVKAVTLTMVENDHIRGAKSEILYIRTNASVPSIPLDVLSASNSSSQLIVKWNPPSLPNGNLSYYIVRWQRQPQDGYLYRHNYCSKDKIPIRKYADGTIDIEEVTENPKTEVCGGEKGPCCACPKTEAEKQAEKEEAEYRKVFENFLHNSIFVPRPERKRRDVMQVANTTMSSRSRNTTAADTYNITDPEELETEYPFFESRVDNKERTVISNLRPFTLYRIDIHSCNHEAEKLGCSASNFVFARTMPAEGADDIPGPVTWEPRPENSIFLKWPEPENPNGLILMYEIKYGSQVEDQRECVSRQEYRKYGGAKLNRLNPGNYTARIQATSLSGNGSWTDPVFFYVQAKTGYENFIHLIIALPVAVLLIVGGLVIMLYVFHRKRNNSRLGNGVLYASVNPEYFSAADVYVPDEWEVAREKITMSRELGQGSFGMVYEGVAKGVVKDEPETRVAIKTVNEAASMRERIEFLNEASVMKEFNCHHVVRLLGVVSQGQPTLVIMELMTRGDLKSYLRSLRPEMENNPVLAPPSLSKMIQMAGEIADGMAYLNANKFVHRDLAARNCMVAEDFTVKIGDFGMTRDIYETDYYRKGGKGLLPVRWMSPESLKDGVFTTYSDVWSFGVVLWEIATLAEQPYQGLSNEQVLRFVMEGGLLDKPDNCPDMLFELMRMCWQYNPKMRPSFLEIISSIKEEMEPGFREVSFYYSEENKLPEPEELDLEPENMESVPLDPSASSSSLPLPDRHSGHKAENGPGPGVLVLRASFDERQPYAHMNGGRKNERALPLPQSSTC

c-Met = biological target: T10, c-Met (Homo sapiens, UniProt P08581); assay: Kinase inhibition assay (33P transfer), c-Met; settings: Table 2, class symbols A-E; read-out: Met-1
T10 construct: Kinases are expressed as either kinase domains or full length constructs; made in house
T10 sequence (P08581 25-1390): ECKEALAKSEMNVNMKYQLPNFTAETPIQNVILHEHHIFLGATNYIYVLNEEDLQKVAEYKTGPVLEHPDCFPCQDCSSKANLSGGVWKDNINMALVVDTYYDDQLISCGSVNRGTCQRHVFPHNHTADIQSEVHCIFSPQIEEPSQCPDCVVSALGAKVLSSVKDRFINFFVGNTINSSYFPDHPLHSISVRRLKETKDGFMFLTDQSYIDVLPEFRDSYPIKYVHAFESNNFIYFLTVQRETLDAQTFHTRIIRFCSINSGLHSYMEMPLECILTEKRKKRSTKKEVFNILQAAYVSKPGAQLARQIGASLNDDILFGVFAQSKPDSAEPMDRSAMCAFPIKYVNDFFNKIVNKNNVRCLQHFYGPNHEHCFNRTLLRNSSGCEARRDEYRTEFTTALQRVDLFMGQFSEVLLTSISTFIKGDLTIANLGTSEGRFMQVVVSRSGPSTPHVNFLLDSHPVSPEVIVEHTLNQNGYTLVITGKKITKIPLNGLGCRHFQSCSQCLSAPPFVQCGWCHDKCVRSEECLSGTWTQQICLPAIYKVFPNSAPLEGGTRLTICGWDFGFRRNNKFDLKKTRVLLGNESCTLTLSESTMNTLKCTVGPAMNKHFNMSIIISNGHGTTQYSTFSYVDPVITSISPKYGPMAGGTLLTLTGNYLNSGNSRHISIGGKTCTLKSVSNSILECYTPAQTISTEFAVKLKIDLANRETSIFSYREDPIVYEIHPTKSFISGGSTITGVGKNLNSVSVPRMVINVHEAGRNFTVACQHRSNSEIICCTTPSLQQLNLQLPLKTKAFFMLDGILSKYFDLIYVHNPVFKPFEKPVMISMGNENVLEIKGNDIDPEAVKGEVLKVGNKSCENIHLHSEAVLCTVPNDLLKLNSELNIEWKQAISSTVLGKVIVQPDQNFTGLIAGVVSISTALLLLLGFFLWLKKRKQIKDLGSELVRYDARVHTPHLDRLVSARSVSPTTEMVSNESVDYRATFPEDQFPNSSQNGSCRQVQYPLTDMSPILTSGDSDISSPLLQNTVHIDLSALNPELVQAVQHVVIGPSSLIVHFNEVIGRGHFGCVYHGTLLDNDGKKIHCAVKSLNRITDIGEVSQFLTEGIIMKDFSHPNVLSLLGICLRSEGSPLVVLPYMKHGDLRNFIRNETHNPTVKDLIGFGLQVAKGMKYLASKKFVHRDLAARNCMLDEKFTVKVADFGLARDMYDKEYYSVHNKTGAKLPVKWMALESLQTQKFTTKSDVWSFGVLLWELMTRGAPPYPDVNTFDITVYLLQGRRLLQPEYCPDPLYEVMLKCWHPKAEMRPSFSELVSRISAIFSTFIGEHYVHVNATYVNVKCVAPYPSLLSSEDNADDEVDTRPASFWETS
Summary of the method: as §1

SMILES	IC50 (Itk) [µM]	IC50 (Zap-70) [µM]	IC50 (Lck) [µM]	IC50 (ErbB2) [µM]	IC50 (AKT) [µM]	IC50 (EGFR) [µM]	IC50 (Kdr) [µM]	IC50 (PDGFRB) [µM]	IC50 (IGFR-1) [µM]	IC50 (c-Met) [µM]
COC(=O)c1ccc(-c2cc(Nc3ncnc(Nc4cc(F)cc(F)c4)n3)[nH]n2)cc1 [Compound 810]	> 10.6	> 10.6	> 10.6	> 10.6	> 10.6	> 10.6	> 10.6	> 10.6	8.27 to 10.6	> 10.6
COc1ccc(Nc2ncnc(N(C)C3CCCCC3)n2)cc1OC [Compound 796]	6.99 to 10.2	> 13.1	< 1.16	6.99 to 10.2	> 13.1	< 1.16	10.2 to 13.1	1.16 to 6.99	> 13.1	1.16 to 6.99
CN(c1cccc(Cl)c1)c1ncnc(Nc2ccc3c(cnn3C)c2)n1 [Compound 674]	> 12.3	> 12.3	1.09 to 6.56	1.09 to 6.56	> 12.3	< 1.09	1.09 to 6.56	1.09 to 6.56	> 12.3	1.09 to 6.56
O=C(O)CCc1cccc(Nc2ncnc(Nc3cc(-c4ccco4)[nH]n3)n2)c1 [Compound 887]	6.13 to 8.94	> 11.5	1.02 to 6.13	1.02 to 6.13	1.02 to 6.13	< 1.02	< 1.02	1.02 to 6.13	< 1.02	< 1.02
CNS(=O)(=O)Cc1ccc(Nc2ncnc(Nc3cc(-c4ccc(C(=O)OC)cc4)n[nH]3)n2)cc1 [Compound 883]	> 9.1	> 9.1	> 9.1	> 9.1	> 9.1	4.85 to 7.08	> 9.1	4.85 to 7.08	4.85 to 7.08	< 0.809

Second part, the compound after the results:

IC50 (Itk) [µM]	IC50 (Zap-70) [µM]	IC50 (Lck) [µM]	IC50 (ErbB2) [µM]	IC50 (AKT) [µM]	IC50 (EGFR) [µM]	IC50 (Kdr) [µM]	IC50 (PDGFRB) [µM]	IC50 (IGFR-1) [µM]	IC50 (c-Met) [µM]	SMILES
4.89 to 7.14	> 9.17	< 0.815	0.815 to 4.89	> 9.17	0.815 to 4.89	0.815 to 4.89	0.815 to 4.89	< 0.815	< 0.815	COc1cc(Nc2ncnc(Nc3cc(-c4ccc(C(=O)N(C)C)cc4)n[nH]3)n2)cc(OC)c1OC [Compound 993]
> 9.29	> 9.29	> 9.29	> 9.29	> 9.29	> 9.29	> 9.29	> 9.29	> 9.29	> 9.29	COc1cc(Nc2ncnc(-c3cccnc3Nc3cccc4c3CCCC4)n2)cc(OC)c1OC [Compound 841]
> 9.1	> 9.1	> 9.1	0.809 to 4.85	> 9.1	> 9.1	< 0.809	0.809 to 4.85	4.85 to 7.08	> 9.1	COc1cc(Nc2ncnc(-c3cccnc3NCc3cccc4ccccc34)n2)cc(OC)c1OC [Compound 844]
> 11.7	9.1 to 11.7	1.04 to 6.24	9.1 to 11.7	9.1 to 11.7	1.04 to 6.24	< 1.04	< 1.04	> 11.7	> 11.7	OCc1cccc(Nc2ncnc(-c3cccnc3NCc3ccccc3)n2)c1 [Compound 1103]
> 10.4	> 10.4	0.927 to 5.56	0.927 to 5.56	8.11 to 10.4	< 0.927	< 0.927	8.11 to 10.4	> 10.4	5.56 to 8.11	CCN(c1ncnc(Nc2cc(OC)c(OC)c(OC)c2)n1)c1cccc2ccccc12 [Compound 634]

From patent US7074789B2, “Kinase inhibitors” (Amgen Inc., priority 1999, dated 2006)
